The assay has as its target T1, DLAR Ig1-FN3 (Drosophila melanogaster, UniProt P16621).
T1 construct: hexahistidine (C); made in house; host or cells: HEK-293T cells with kifunensine or GnTI- HEK293S cells
T1 sequence (P16621 33-606): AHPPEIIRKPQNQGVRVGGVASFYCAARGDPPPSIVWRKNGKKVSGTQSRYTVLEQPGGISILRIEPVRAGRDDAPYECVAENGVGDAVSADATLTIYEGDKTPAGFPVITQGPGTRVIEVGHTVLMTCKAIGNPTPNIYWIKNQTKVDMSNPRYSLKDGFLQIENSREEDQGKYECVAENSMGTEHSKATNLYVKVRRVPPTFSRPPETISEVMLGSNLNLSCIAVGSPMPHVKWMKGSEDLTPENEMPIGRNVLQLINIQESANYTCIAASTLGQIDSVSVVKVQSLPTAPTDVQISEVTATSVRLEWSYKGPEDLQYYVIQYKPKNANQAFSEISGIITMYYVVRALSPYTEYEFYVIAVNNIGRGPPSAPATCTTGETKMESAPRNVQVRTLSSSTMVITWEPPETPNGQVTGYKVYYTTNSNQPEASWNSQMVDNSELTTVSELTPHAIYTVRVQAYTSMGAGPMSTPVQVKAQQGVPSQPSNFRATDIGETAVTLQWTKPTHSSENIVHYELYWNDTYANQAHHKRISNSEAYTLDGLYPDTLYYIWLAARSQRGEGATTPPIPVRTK
Put plainly: SEC-MALS, heparin-induced oligomerisation of DLAR. Type of assay: biochemical. How it is done: MALS experiments were carried out on a […] System (Wyatt Technologies). All proteins were purified as described above, and samples were incubated alone or with an oligosaccharide ligand for an hour at room temperature prior to use in MALS analysis. For size defined heparin fragments (Iduron dp4-dp30; product codes HO04-HO30) a five-fold molar excess of oligosaccharide to protein was used, except for the series of experiments presented in FIG. 13, where a range of RPTPσ constructs were tested with a separate batch of dp10 at a two-fold molar excess (FIG. 37, highlighted in blue). Equivalent amounts (equal mg/ml concentrations) of HS (Iduron, GAG-HS01) and CS (Sigma, C4384) were used for MALS experiments as had been for heparin dp10 (in giving a five-fold molar excess). […] All Ig1-FN3 proteins were injected at approximately 10 μM. Size exclusion chromatography was performed in 10 mM Tris, 50 mM NaCl, pH 7.5 on a Superdex75 or Superdex200 HR10/30 column (GE Healthcare), attached to an Agilent chromatography system. An Optilab rEX Refractive Index detector and a Dawn Helios II Multi-Angle Light Scattering (MALS) detector recorded the refractive index and light scattering of the samples upon elution from the size exclusion column. The Wyatt software ASTRA was used to analyse all the data collected.

Turning to Heparin, the “oligomerisation of DLAR Ig1-FN3” value is recorded as “promotes the oligomerisation”.

The record behind these values is patent publication US9744188B2, “Methods of promoting neuronal outgrowth by gypican 2 that binds to receptor protein tyrosine phosphatase sigma” (PRESIDENT AND FELLOWS OF HARVARD COLLEGE, priority 2011, dated 2017).
